Test results taken from patent US10568854B2, “Compositions and methods for treating kabuki syndrome and related disorders” (THE JOHNS HOPKINS UNIVERSITY, priority 2014, dated 2020).
“Also recorded” adds a separate entry of the source. Values belong to the compound of their own block, whether it stands above or below them.

What was measured:
[1] = tested on: DCX positive cells in the GCL; experiment: Doublecortin positive fraction of the GCL (Example 2); type: in vivo, mouse; settings: 10 mM/kg/day IP, two weeks, sodium salt
Experimental: Perfusion, sectioning and, staining: For perfusion, cryosectioning and immunofluorescence staining, see Bjornsson et al. (2014). EdU (Life Sciences) in PBS/6% DMSO (10 mg/ml) injections (50 μg/g/day) were performed either with seven consecutive days followed by immediate perfusion or seven consecutive days of injection and then perfusion on the 30th day after the first injection. […] EdU was imaged with Click-iT EdU Alexa Flour 488 Imaging Kit (Invitrogen) as well as DAPI mounting with Vectamount (Vector Laboratories, Burlingame, Calif.). EdU quantification was done blinded to genotype. Labeled cells were counted in every sixth slice in the granule cell layer of the dentate gyrus and average number per slice was calculated for each brain. For immunofluorescence, primary antibodies included Doublecortin (Santa Cruz Biotechnology, 1:200 goat), trimethylated H3K4 (Cell Signaling, Danvers, Mass.; 1:500 rabbit), and Acetylated H3K9 and […] (Cell Signaling, 1:5000). Primary antibodies were incubated overnight at 4° C. in blocking buffer. Doublecortin area measurement: The DCX positive fraction of the GCL was measured by taking 4× pictures and using the Bezier tool on NS elements 2.0 software (Nikon) to measure the area of cells that expressed DCX as well as the entire granule cell layer.

[2] = tested on: H4ac indicator in HEK 293 cells; experiment: H4ac indicator experiment with BHB, FACS; type: cell-based; settings: 24 hours before FACS; sodium salt
Experimental: (§1) Indicator experiments: HEK 293 cells were transfected with lipofectamine LTX (Invitrogen, Carlsbad, Calif.) with either the H3K4me3 indicator or the H4ac indicator, synthesized by OriGene Technologies (Rockville, Md.). Stable transfections were maintained through positive selection with blastacidin […] (Life Technologies, Grand Island, N.Y.). For BHB treatment, (R)-(−)-3-Hydroxybutyric acid sodium salt (Santa Cruz Biotechnology) was added to the medium 24 hours before FACS analysis (FACSVerse, BD Biosciences, Franklin Lakes, N.J.). Data was analyzed using FlowJo (Tree Star Inc., Ashland, Oreg.).

[3] = tested on: H3K4me3 indicator in HEK 293 cells; experiment: H3K4me3 indicator experiment with BHB, FACS; type: cell-based; settings: 24 hours before FACS; sodium salt
Experimental: as §1

EdU+ cells in the GCL = experiment: EdU incorporation in the GCL (proliferation / survival); type: in vivo, mouse; settings: 10 mM/kg/day IP, two weeks, sodium salt
Excerpt: Animals and treatment: The mouse model, Kmt2d^+/βGeo, also known as (Mll2Gt^(RRt024)Byg), was generated by BayGenomics (University of California, CA) through insertion of a gene trapped vector, and was used on a fully backcrossed C57BL/6J background. The original unbalanced (6:1 fat to protein ration) diet was purchased from Bio-Sery (Ketogenic Diet AIN-76A-Modified High Fat Paste F3666; Flemington, N.J.), while the balanced diet (4:1 ratio) was also from Bio-Serv (F6689 Rodent Diet, Ketogenic, Fat: Paste). Mice were treated for two weeks on the diet, with the paste replaced several times a week. During MWM testing, given the length of testing (week), the mice were treated for three weeks.
BHB injection and BHB assay: For injections into mice, (R)-(−)-3-hydroxybutyric acid sodium salt (Santa Cruz Biotechnology, Dallas, Tex.) was used at an experimental dose of (10 mM/kg). To detect BHB in the urine (from either injections or ketogenic diet), the β-Hydroxybutyrate (Ketone Body) Colorimetric Assay Kit (Cayman Chemical Company, Ann Arbor, Mich.) was used. […]
Perfusion, sectioning and, staining: For perfusion, cryosectioning and immunofluorescence staining, see Bjornsson et al. (2014). […] EdU quantification was done blinded to genotype. Labeled cells were counted in every sixth slice in the granule cell layer of the dentate gyrus and average number per slice was calculated for each brain. […]

[4] = BHB in urine, colorimetric assay; type: in vivo, mouse
Experimental: BHB injection and BHB assay: For injections into mice, (R)-(−)-3-hydroxybutyric acid sodium salt (Santa Cruz Biotechnology, Dallas, Tex.) was used at an experimental dose of (10 mM/kg). To detect BHB in the urine (from either injections or ketogenic diet), the β-Hydroxybutyrate (Ketone Body) Colorimetric Assay Kit (Cayman Chemical Company, Ann Arbor, Mich.) was used. Urine from injections was drawn approximately 2 hours after injection and urine from mice on the ketogenic diet was taken in the early afternoon (unless otherwise stated in the text).

[5] = tested on: H3K4 trimethylation activity in Kmt2d^+/βGeo and Kmt2d^+/+ MEFs; experiment: H3K4me3 indicator in murine embryonic fibroblasts (MEFs); type: cell-based, mouse; settings: Kmt2d^+/βGeo cells treated with HDAC inhibitor
Excerpt: An H3K4 trimethylation reporter was also created. This reporter is based on the H3 tail on one end and the TBP associated factor III (TAFIII) homeodomain on the other end; the TAFIII homeodomain only identifies and binds to trimethylated K4 on H3. When the H3K4 site gets trimethylated, the TAFIII homeodomain can bind to the modified H3 tail and bring the two parts of the separated GFP in close proximity. The activity of the epigenetic modification system can be quantified through fluorescence.
(§2) Epigenetic reporter alleles: Epigenetic reporter alleles were synthesized (OriGene, Rockville, Md.) using published sequences for component elements (Baird et al. (1999) Proc. Nail. Acad. Sci. 96:11241-6; Souslova et al. (2007) BMC Biotechnol. 7:37). Single nucleotide mutations were created using the QuickChange Lightening kit (Agilent Technologies Inc, Santa Clara, Calif.). For H4ac indicator, K5R, K8R, K12R, K16R and K20R (MUT indicator) were introduced. For H3K4me3 indicator, K4Q and D890A/W891A and M882A (three separate constructs) were introduced. For transient transfections, mouse embryonic fibroblasts (see below) were transfected with Fugene HD (Promega, Madison, Wis.), 48 hours prior to FACS. […] For drug stimulation, drug was added to the media 24 hours prior to FACS. For stable transfections in T293 (American Type Culture Collection) cells, 10 μg/ml of Blastocidin (Life Technologies, Carlsbad, Calif.) was added to the media for several weeks. For stable transfection in MEFs, the reporter was transferred to a ViraPower Lentiviral Expression System (Life Technologies, Carlsbad, Calif.). After selection with Blastocidin, the drug of interest was added 24 hours prior to FACS. SAHA, AR-42 and MS275 were purchased from Selleck (Selleck Chemicals, Houston, Tex.). […] FACS data were analyzed using FlowJo (Tree Star Inc, Ashland, Oreg.). A plasmid expressing HDAC3 was acquired from Addgene (Cambridge, Mass., plasmid 13819) and transfected into a stable cell line carrying the H4 acetyl reporter allele.

[6] = tested on: H3K4 trimethylation and histone acetylation; settings: Huang et al. (2011); cited from earlier work
[7] = tested on: H4ac indicator (H4 acetylation machinery activity) in HEK293 cells; experiment: H4ac (acetylation) indicator reporter assay, FACS; type: cell-based
Excerpt: Design of the indicator constructs. A genetically encoded histone reporter allele system has been developed which can be used to monitor activity of any histone maintenance machinery component in live cells. Previously, FRET based epigenetic activity systems have been created (Lin and Ting (2004) Angew Chem Int Ed Engl. 24;43 (22):2940-3; Lin et al. (2004) J. Am. Chem. Soc. 19;126(19):5982-3; U.S. Pat. No. 7,056,683). However, FRET-based assays need a complex technological setup which is not widely available and FRET-based assays have been much more difficult to introduce into transgenic mouse models. […] The particular construct design is based on a circularly permutated green fluorescent protein (GFP) that lacks fluorescence unless the two parts of GFP are brought into close proximity by external forces (Baird et al. (1999) Proc. Natl. Acad. Sci. U.S.A. 28;96(20):11241-6). The constructs are targeted to the nucleus through a nuclear localization signal (NLS). Mutants were also created that knocked out the activity of the indicator allele.
The acetyl reporter protein quantifies the activity of the acetylation machinery (acetylation of H4 specifically at the 5th, 8th, 12th and 16th Lysine's) and comprises an H4 tail on one end (the target for acetylation) and a TBP associated factor II (TAFII) bromodomain on the other end of the reporter protein. The TAFII bromodomain only recognizes and binds to the acetylated H4 tail, resulting in reconstitution of GFP structure and function (i.e. fluorescence). Therefore, the reporter protein has no fluorescence unless it is acetylated by the acetylation system of the nucleus of the cell.
as §2

time of maximal drug activity ([4]; after injection): 1.5 h
Structure (SMILES): C[C@@H](O)CC(=O)[O-].[Na+] [BHB, (R)-(−)-3-hydroxybutyric acid sodium salt]
DCX positive cells, treated Kmt2d^+/βGeo versus treated Kmt2d^+/+ [1]: not to Kmt2d^+/+ BHB treated levels; also recorded: did not lead to a full recovery | DCX positive cells, treated versus vehicle ([1]; Kmt2d^+/βGeo): increase in DCX expression; also recorded: significant increase in DCX positive cells | H4Ac indicator response to increased amounts in culture media [2]: dose-dependent increased activity; also recorded: dose-dependent response | H3K4me3 indicator response to increased amounts in culture media [3]: dose-dependent increased activity; also recorded: dose-dependent response | EdU positive cells, treated Kmt2d^+/βGeo versus Kmt2d^+/+ (EdU+ cells in the GCL): did not recover back; also recorded: did not lead to a full recovery | EdU positive cells (proliferation), treated versus vehicle (EdU+ cells in the GCL; Kmt2d^+/βGeo): significant increase in EdU expression; also recorded: significant increase in EdU positive cells | BHB level in the urine over a 12 hour day after one injection ([4]; 10 mM/kg at 9 AM): decreased to vehicle injected levels over a matter of hours | BHB level in the urine after injection ([4]; 10 mM/kg, urine after 1.5 hours): most similar to treatment with a ketogenic diet

Structure (SMILES): Nc1ccccc1NC(=O)c1ccc(CNC(=O)OCc2cccnc2)cc1 [MS275, Pyridin-3-ylmethyl N-[[4-[(2-aminophenyl)carbamoyl]phenyl]methyl]carbamate]
H3K4 trimethylation activity [5]: enhanced; also recorded: improved | effect on H3K4 trimethylation and histone acetylation [6]: increase H3K4 trimethylation and histone acetylation

Structure (SMILES): O=C(CCCCCCC(=O)Nc1ccccc1)NO [SAHA, N′-hydroxy-N-phenyl-octanediamide]
cells easily discriminated from auto fluorescence (H4ac indicator) ([7]; 1 μM of SAHA): 5% | cells easily discriminated from auto fluorescence (H4ac indicator) ([7]; 2.5 μM of SAHA): 20% | cells easily discriminated from auto fluorescence (H4ac indicator) ([7]; 7.5 μM of SAHA): 40% | cells easily discriminated from auto fluorescence (H4ac indicator) ([7]; 10 μM of SAHA): 45% | fluorescence response of acetylation indicator to increasing amounts of drug ([7]; FACS, culture systems): linear fluorescence response; also recorded: increasing fluorescence | acetylation of the indicator ([7]; FIG. 18A): increases acetylation of the indicator | H4ac indicator signal upon stimulation ([7]; HEK293 cells stably expressing the H4ac indicator): increased signal
